Data on four compounds can be found in patent US12239643B2, “Therapeutic agent for inflammatory diseases, autoimmune diseases, fibrotic diseases, and cancer diseases” (MEIJI SEIKA PHARMA CO., LTD., priority 2018, dated 2025).

Where two headings read alike, the source gives them in different places.

Experiment [1] deals with TNFα. The experiment in a line: Cytokine suppression using whole human blood: TNFα (lipopolysaccharide stimulus). To be noted: read-out: TNFα Inhibitory Activity, Human Whole Blood (Test Example 3). In kind it is cell-based. As to the method: The test compound dissolved in dimethyl sulfoxide was added to a 96-well plate, and RPMI-1640 medium and human peripheral blood containing sodium heparin were added, followed by culture at 37° C. under 5% CO2 for 1 hour. A medium containing only dimethyl sulfoxide instead of the test compound was added to the control well. To each well, lipopolysaccharide (final concentration 10 ng/mL) as a TNFα production stimulant, or phytohaemagglutinin (final concentration 20 μg/mL) as an IL-17A production stimulant, or CytoStim reagent ( 1/100 concentration) and CD28 antibody (final concentration 2.5 ng/mL) as an IL-4 production stimulant and an IL-5 production stimulant were added, followed by culture at 37° C. under 5% CO2. The culture was carried out for about 18 hours for the evaluation of the amount of TNFα, and for about 48 hours for the evaluation of the amounts of IL-17A, IL-4, and IL-5.
After collecting the culture supernatant after culturing, the amount of each cytokine was measured by the sandwich ELISA method. The cytokine production suppression rate (inhibition rate) by the test compound was calculated by the following formula from the cytokine production amount when the test compound was added, with the cytokine production amount for the control well as 100%. Inhibition Rate={1−(Cytokine Amount at Addition of Each Test Compound)/(Cytokine Amount for Control Well)}×100
In addition, the cytokine inhibitory activity (concentration for the inhibition rate of 50%) of the test compound was calculated from the inhibition curves based on the inhibition rates for various concentrations of the test compound.
The measurement results obtained by measuring the TNFα inhibitory activity and IL-5 inhibitory activity (50% inhibitory concentration) of the test compounds by the above method were evaluated in accordance with the following evaluated basis; A: less than 100 nM, B: 100 nM or more and less than 500 nM, and C: 500 nM or more. In addition, the measurement results obtained by measuring the IL-17A inhibitory activity and IL-4 inhibitory activity (50% inhibitory concentration) of the test compounds were evaluated in accordance with the following evaluated basis; A: less than 500 nM, B: 500 nM or more and less than 5000 nM, and C: 5000 nM or more.

In experiment [2] the test system is oxazolone-induced auricle edema, BALB/c mice. The experiment can be described thus: Mouse delayed type hypersensitivity (DTH) model (topical). Type of experiment: in vivo. To be noted: 20 μL applied to auricle, 24 hours after application. The method, then:
Evaluation was carried out using female BALB/c mice (7 to 8 weeks of age). First, the hair of the abdomen of the mice was treated with a hair clipper, and then 150 μL of a 3% oxazolone acetone/ethanol solution was applied to the abdomen as a hapten. Five days later, 20 μL/ear of a 1% oxazolone.acetone/ethanol solution was applied to the outer surface of the auricle of both ears of the mouse to induce inflammation. Thirty minutes after the start of inflammation induction, 20 μL of the test compound dissolved in an acetone/ethanol solution was applied to the auricle. A 1% oxazolone was not applied to the blank. The control was one in which 1% oxazolone was applied and only an acetone/ethanol solution was applied without using the test compound. The auricle thickness 24 hours after application of the test compound was measured with a dial thickness gauge, and the value obtained by subtracting the blank value was used to calculate the edema suppression rate by the following formula. Edema Suppression Rate (%)={1−(Value at Addition of Each Test Compound−Blank Value)/(Control Value−Blank Value)}×100 The measurement results obtained by measuring the edema suppression rate at the time of topical administration of each test compound by the above method were evaluated in accordance with the following evaluated basis; A: 60% or more, B: 40% or more and less than 60%, and C: less than 40%.

Experiment [3] deals with PDE4. The experiment in a line: Evaluation of PDE4 inhibitory activity, scintillation proximity assay. In kind it is biochemical. To be noted: for PDE4 inhibitory activity: summary in words of Tables 57 to 69. The procedure, abridged:
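IC50 was derived from inhibition curves, referenced to an enzyme-free blank and a DMSO-only control. Compound, PDE4 preparation and tritiated cAMP reacted 120 min at RT in Tris-HCl buffer (pH 7.4) with MgCl2, EGTA and BSA; YSi-SPA beads with ZnSO4 bound product before scintillation counting.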

The mark [4] stands for this setting: Homo sapiens, human whole blood.
Where [5] appears, read: finer grading of compounds rated A in Evaluation 1, read-out: PDE4 Inhibitory Activity (Evaluation 2).
Setting [6] is: scintillation proximity assay, read-out: PDE4 Inhibitory Activity (Evaluation 1; concentration for the inhibition rate of 50%).

Take `CC(C)(O)C(F)(F)Oc1ccc(-c2nccs2)c2oc(N3CC4CC(C3)N4)nc12` [Example 248, 1-((2-(3,6-Diazabicyclo[3.1.1]heptan-3-yl)-7-(thiazol-2-yl)benzo[d]oxazol-4-yl)oxy)-1,1-difluoro-2-methylpropan-2-ol]: the IC50 in experiment [1] (setting [4]) was less than 100 nM; in experiment [3] (setting [5]), not above 1 nM; in experiment [3] (setting [6]) it was less than 100 nM. In addition, the “Mouse DTH Model (Test Example 11), Topical: edema suppression rate” value (“Mouse DTH Model” for short) in experiment [2] is “A (A: 60% or more)”. In addition, in experiment [3], the PDE4 inhibitory activity result was “particularly excellent”.
As to `CCOc1cc([C@@H](CS(C)(=O)=O)N2C(=O)c3cccc(NC(C)=O)c3C2=O)ccc1OC` [apremilast, reference compound], the results for the IC50 in experiment [1] (Homo sapiens) and in experiment [3] (setting [5]) were more than 500 nM and 11 to 100 nM, respectively.
Regarding `FC(F)(F)Oc1ccc(-c2nccs2)c2oc(N3CC4CC(C3)N4)nc12` [Example 29, 2-(3,6-Diazabicyclo[3.1.1]heptan-3-yl)-7-(thiazol-2-yl)-4-(trifluoromethoxy)benzo[d]oxazole], the IC50 in experiment [1] (setting [4]) is less than 100 nM; in experiment [3] (setting [5]), 1 to 11 nM; in experiment [3] (scintillation proximity assay, class symbols of Evaluation 1, read-out: PDE4 Inhibitory Activity (concentration for the inhibition rate of 50%, IC50), Evaluation 1), less than 100 nM. The “Mouse DTH Model” value in experiment [2] is reported as “A (A: 60% or more)”. In addition, in experiment [3], the PDE4 inhibitory activity result is recorded as “particularly excellent”.
In the case of `CC(O)C(F)(F)Oc1ccc(-c2nccs2)c2oc(N3CC4CC(C3)N4)nc12` (single isomer, unassigned) [Example 252, 1-((2-(3,6-Diazabicyclo[3.1.1]heptan-3-yl)-7-(thiazol-2-yl)benzo[d]oxazol-4-yl)oxy)-1,1-difluoropropan-2-ol], the IC50 is less than 100 nM in experiment [1] (human whole blood), not above 1 nM in experiment [3] (setting [5]) and less than 100 nM in experiment [3] (setting [6]). Also, in experiment [2], the “Mouse DTH Model” value was “B (B: 40% or more and less than 60%)”. Also, the PDE4 inhibitory activity entry in experiment [3] is “particularly excellent”.
